The values that follow come from US5196453A, “Crystalline deoxyspergualin, process for its preparation and suppository containing the same” (priority 1989, dated 1993).

Data set [1] can be described thus: Heat stability: undecomposed substance by HPLC after storage at 50° C. for 6 days. In kind it is physicochemical. As to the method: To evaluate the heat stability of α-form crystals of deoxyspergualin hydrochloride in comparison with that of the powder, samples were stored at 50° C. for 6 days and were analyzed by high-pressure liquid chromatography (HPLC), and the amount of undecomposed substance was measured.
To evaluate the heat stability of β-form crystals of deoxyspergualin hydrochloride in comparison with that of the powder, samples were stored at 50° C. for 6 days, and analyzed by HPLC to measure the amount of undecomposed substance.
To evaluate the heat stability of the Powder A in comparison with those of α-form crystals and β-form crystals of the above-identified application, samples were stored at 50° C. for 6 days and then analyzed by HPLC to measure the amount of undecomposed substance.

Data set [2] is described as follows: Hygroscopicity: change in weight after storage at different RH (%) for 24 hrs. To be noted: for Deliquescence (in words): RH of 64%. The class given is physicochemical. As for the experimental part: To evaluate the hygroscopicity of the powder and α-form crystals of deoxyspergualin hydrochloride, the change of the weight of each sample was measured after storage in different RH (%) for 24 hrs. To evaluate the hygroscopicity of the powder and β-form crystals of deoxyspergualin hydrochloride, the change in the weight of each sample was measured after storage in different RH (%) for 24 hrs. The hygroscopicity each of the Powder A and α-form crystals and β-form crystals of the above-identified application was evaluated by measuring the change in weight after storage in various RH(%) for 24 hrs.

Molecules are shown by their SMILES. Where “and” joins values, the source holds several entries; their conditions need not be identical. Equal entries are not always repeated. Structures can show the parent of a compound that is named as a salt. Where two headings read alike, the source gives them in different places.

Turning to `N=C(N)NCCCCCCC(=O)NC(O)C(=O)NCCCCNCCCN` (stereo not drawn) [α-form crystals, N-[4-(3-aminopropyl)aminobutyl]-2-(7-guanidinoheptanamide)-2-hydroxyethanamide trihydrochloride], in data set [1] (trihydrochloride, 8640 min), the “Amount of undecomposed substance” value is 100.1% and 100.0%. For the same compound, the Increase in weight was -0.6% and -0.8% in data set [2] (RH 31%, trihydrochloride); -0.4% in data set [2] (RH 43%, trihydrochloride); -0.1% and -0.2% in data set [2] (RH 52%, trihydrochloride); 15.2% and 17.8% in data set [2] (RH 64%, trihydrochloride). In data set [2] (RH of 52% or below), the “Water absorption (in words)” value is “did not absorb water”.

For `Cl.Cl.Cl.N=C(N)NCCCCCCC(=O)NC(O)C(=O)NCCCCNCCCN` (centres unmarked) [Powder A, N-[4-(3-aminopropyl)aminobutyl]-2-(7-guanidinoheptanamido)-2-hydroxyethanamide trihydrochloride, reference compound], in data set [1], the “Amount of undecomposed substance” value was determined as 59.7%. Moreover, the Increase in weight in data set [2] (RH 31%) amounted to 5.0%; in data set [2] (RH 43%), 6.3%; in data set [2] (RH 52%) it was 7.4%; in data set [2] (RH 64%) it was 13.2%.

Take `N=C(N)NCCCCCCC(=O)NC(O)C(=O)NCCCCNCCCN` (centres unmarked) [Powder, N-[4-(3-aminopropyl)aminobutyl]-2-(7-guanidinoheptanamide)-2-hydroxyethanamide trihydrochloride, reference compound]: in data set [1] (trihydrochloride, 8640 min), the “Amount of undecomposed substance” value was 89.8% and 83%. Besides, the Increase in weight in data set [2] (RH 14%) came out at 1.5%; in data set [2] (RH 31%, trihydrochloride) it was 5.9%; in data set [2] (RH 43%, trihydrochloride), 9.1%; in data set [2] (RH 52%, trihydrochloride) it was 12.6%; in data set [2] (RH 64%, trihydrochloride) it was 17.9%; in data set [2] (RH 76%, trihydrochloride) it was 28.3%. Further, the “Deliquescence (in words)” value in data set [2] (trihydrochloride) is “deliquesced”.

As to `N=C(N)NCCCCCCC(=O)NC(O)C(=O)NCCCCNCCCN` (stereo not drawn) [β-form crystals, N-[4-(3-aminopropyl)aminobutyl]-2-(7-guanidinoheptanamide)-2-hydroxyethanamide trihydrochloride], the “Amount of undecomposed substance” value in data set [1] (trihydrochloride, 8640 min) was 100.6% and 100.2%. Also, the Increase in weight in data set [2] (RH 31%, trihydrochloride) is 1.7% and 1.2%; in data set [2] (RH 43%, trihydrochloride), 2.6% and 2.1%; in data set [2] (RH 52%, trihydrochloride) it was 3.8% and 3.0%; in data set [2] (RH 64%, trihydrochloride), 7.3% and 6.1%; in data set [2] (RH 76%, trihydrochloride), 14.0%. Besides, the “Deliquescence (in words)” value in data set [2] (trihydrochloride) is recorded as “did not deliquesce”.
